# Reference: US8507219B2, “Method of treating inflammation with statins” (MUSC Foundation for Research Development, priority 1997, dated 2013)
# Legend:
# [1] = system: IL-1β production in rat primary astrocytes; assay: LPS-induced IL-1β production (ELISA) in rat primary astrocytes; type: cell-based; details: forskolin 10 μM; 8-Br-cAMP 100 μM; rolipram 20 μM; H-89 2 μM; myristoylated PKI 0.4 μM
# Procedure: (§1) Determination of TNF-α and IL-1β in culture supernatants Cells were stimulated with LPS in serum-free media for 24 h in the presence or absence of forskolin or rolipram, and concentrations of TNF-α and IL-1β were measured in culture supernatants by using high-sensitivity enzyme-linked immunosorbent assay (R&D Systems, USA) according to the manufacturer's instructions.
# [2] = system: IL-1β production in rat primary microglia; assay: LPS-induced IL-1β production (ELISA) in rat primary microglia; type: cell-based; details: 10 μM forskolin or 20 μM rolipram 15 min, then LPS 1.0 μg/ml, 24 h
# Procedure: as §1
# [3] = inferred from reports in mice and marmoset (Sommer et al., 1995); cited from earlier work
# [4] = system: cultured skin fibroblasts of X-ALD; assay: β-oxidation of lignoceric acid in cultured skin fibroblasts of X-ALD; type: cell-based, human
# [5] = system: cultured skin fibroblasts of X-ALD; assay: VLCFA ratios (C26:0/C22:0, C24:0/C22:0) in X-ALD skin fibroblasts; type: cell-based, human
# [6] = system: TNF-α production in rat primary microglia; assay: LPS-induced TNF-α production (ELISA) in rat primary microglia; type: cell-based; details: 10 μM forskolin or 20 μM rolipram 15 min, then LPS 1.0 μg/ml, 24 h
# Procedure: as §1
# [7] = system: TNF-α production in rat primary astrocytes; assay: LPS-induced TNF-α production (ELISA) in rat primary astrocytes; type: cell-based; details: forskolin 10 μM; 8-Br-cAMP 100 μM; rolipram 20 μM; H-89 2 μM; myristoylated PKI 0.4 μM
# Procedure: as §1
# [8] = system: control skin fibroblasts; assay: VLCFA ratios in control skin fibroblasts; type: cell-based, human; details: two weeks forskolin
# Procedure: Measurement of VLCFA in Fibroblasts Fatty acid methyl ester (FAME) was prepared as described previously by Lepage and Roy (1986) with modifications. Fibroblast cells, suspended in HBSS, were disrupted by sonication to form a homogeneous solution. An aliquot (200 μl) of this solution was transferred to a glass tube and […] heptacosanoic (27:0) acid was added as internal standard and lipids were extracted by Folch partition. Fatty acids were transesterified with acetyl chloride (200 μl) in the presence of methanol and benzene (4:1) for 2 h at 100° C. The solution was cooled down to room temperature followed by addition of 5 ml 6% potassium carbonate solution at ice-cooled temperature. Isolation and purification of FAME were carried out as detailed by Dacremont et al. (1995). […]
# [9] = system: iNOS activity in rat primary astrocytes; assay: iNOS activity (arginine to citrulline) in homogenates of treated rat primary astrocytes; type: cell-based; details: Rattus norvegicus, Astrocyte, LPS 1 μg/ml, 24 h
# Procedure: NOS activity was measured directly by production of L-[2,3,4,5-^3H]citrulline from L-[2,3,4,5-^3H] arginine (Feinstein et al., 1994a). […] Assays were carried out for 30 to 40 min and the production of L-[2,3,4,5-^3H] citrulline was linear. The reactions were stopped by addition of 800 μl of ice-cold 20 mM HEPES (pH 5.5) followed by addition of 2 ml of Dowex-50W equilibrated in the same buffer. The samples were then centrifuged and the concentration of L-[^3H]citrulline was determined in the supernatant by liquid scintillation counting.
# Dose Dependence of Forskolin Inhibition of the LPS Stimulation of iNOS Astrocytes were incubated with different concentrations of forskolin 15 min before the addition of 1 μg/ml LPS, and after 24 h the iNOS activity was measured as nitrite concentrations in the supernatant and conversion of arginine to citrulline in the cellular homogenates (FIG. 1). The level of nitrite and iNOS activity were inhibited to a similar degree at all the concentrations of forskolin tested. […] . […] This may be due to the fact that PKA was already completely activated in extracts of cells incubated with 10 μM forskolin. The PKA activity increased with the increase in forskolin concentration. The reciprocal relationship of production of NO and iNOS activity with PKA activity supports the conclusion that PKA plays a pivotal role in the regulation of iNOS expression in astrocytes.
# [10] = system: PKA; assay: PKA activity (Kemptide phosphorylation) in rat primary astrocytes; type: cell-based; details: optimal concentration of forskolin, LPS 1.0 μg/ml, 1 h; taken as 100%
# [11] = system: control human skin fibroblasts; assay: β-oxidation of lignoceric acid in control human skin fibroblasts; type: cell-based; details: 72 h; forskolin 4 μM; 1,9 dideoxy forskolin 4 μM; 8-Br-cAMP 50 μM; H-89 1 μM; myristoylated PKI 0.2 μM; Control 565.2 ± 48.3
Structure (SMILES),LPS-stimulated production of IL-1β [1],Production of IL-1β [2] [ng/24 h/mg protein],crossing of the blood brain barrier [3],"Lignoceric acid β-oxidation ([4]; 72 h, forskolin 4 μM, 8-Br-cAMP 50 μM, rolipram 10 μM, H-89 1 μM, myristoylated PKI 0.2 μM)","increase of the oxidation of lignoceric acid ([4]; rolipram, two weeks, X-ALD fibroblasts with mutation or deletion) [%]",ratios of C26:0/C22:0 and C24:0/C22:0 / level of VLCFA ([5]; about 15 days of treatment),Production of TNF-α [6] [ng/24 h/mg protein],LPS-stimulated production of TNF-α [7],ratio of C26:0/C22:0 ([8]; from 0.04),ratio of C24:0/C22:0 ([8]; from 1.23),"days of treatment until the ratios of C26:0/C22:0 and C24:0/C22:0 decreased to the normal level ([5]; X-ALD fibroblasts, forskolin 4 μM, lovastatin 5 μM, combination of lovastatin and NaPA) [days]",inhibition at 0.1 µM ([9]; forskolin 0.1 μM (lowest dose with significant effect)) [%],inhibition at 10 µM ([9]; forskolin 10 μM) [%],PKA activity [10] [pmol/min/mg],Lignoceric acid β-oxidation [11] [pmol/h/mg protein]
COc1ccc(C2CNC(=O)C2)cc1OC1CCCC1 (centres unmarked) [Rolipram],inhibited the LPS-stimulated production,2.3 ± 0.3,does cross the blood brain barrier,stimulated lignoceric acid β-oxidation,50 to 65,normalized the levels of VLCFA in these cell lines,1.2 ± 0.09,inhibited the LPS-stimulated production,,,,,,,
C=C[C@@]1(C)CC(=O)[C@]2(O)[C@@]3(C)[C@@H](O)CCC(C)(C)[C@@H]3[C@H](O)[C@H](OC(C)=O)[C@@]2(C)O1 [forskolin],,1.9 ± 0.2,,,,,0.9 ± 0.1,,0.029,1.12,12 to 15,30,~90,74.4 ± 9.4,885.3 ± 62.1
